# Reference: the supplement of paper PMC10307832
# Compound: Cn1c(=O)n(-c2ccc(C(C)(C)C#N)cc2)c2c3cc(-c4cnc5ccccc5c4)ccc3ncc21 [Dactolisib] + C[C@]1(O)C[C@@H](c2nc(-c3ccc4ccc(-c5ccccc5)nc4c3)c3c(N)nccn32)C1 [Linsitinib] (partner 1 µM)
# Assay: relative viability (nuclei count vs DMSO), 5 days (fraction); higher = more cells survive
# Conditions: first compound 0.002 µM
# Method in brief: (§1)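 Relative viability equals treated-well nuclei counts divided by vehicle-well nuclei counts. Counts came from 4× images of lung cancer cell lines grown in 1536-well plates for 5 days after pin-tool dosing on the day after seeding. Dosing used one drug alone or a fixed anchor-drug dose plus five library-drug doses (not always all listed) in √10 steps, and values are medians of duplicate plates.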
row,Cell Line,relative viability
1,BEN,0.888
2,HARA,1
3,NCI-H322M,0.939
4,LCLC-97TM1,0.157
5,NCI-H2009,1.21
6,A-427,1.16
7,NCI-H441,0.594
8,NCI-H661,0.453
9,NCI-H1734,1.02
10,NCI-H460,0.933
11,NCI-H2347,1.29
12,SW 1573,0.824
13,NCI-H1395,0.91
14,201T,1.03
15,NCI-H1915,1.11
16,HCC-827,1.02
17,LXF-289,0.952
18,NCI-H23,0.553
19,NCI-H647,1.15
20,CAL-12T,0.911
21,NCI-H1651,1.03
22,EPLC-272H,1.16
23,NCI-H2228,0.659
24,NCI-H1792,0.57
25,NCI-H1355,0.848
26,NCI-H3122,0.982
27,NCI-H1437,1.05

# Same assay, conditions: first compound 0.006325 µM
row,Cell Line,relative viability
1,BEN,0.852
2,HARA,0.884
3,NCI-H322M,0.826
4,LCLC-97TM1,0.186
5,NCI-H2009,1.18
6,A-427,1.12
7,NCI-H441,0.592
8,NCI-H661,0.454
9,NCI-H1734,0.755
10,NCI-H460,0.654
11,NCI-H2347,0.47
12,SW 1573,0.606
13,NCI-H1395,0.844
14,201T,1.08
15,NCI-H1915,1.13
16,HCC-827,0.919
17,LXF-289,0.98
18,NCI-H23,0.598
19,NCI-H647,0.898
20,CAL-12T,0.72
21,NCI-H1651,0.743
22,EPLC-272H,1.09
23,NCI-H2228,0.488
24,NCI-H1792,0.483
25,NCI-H1355,0.761
26,NCI-H3122,0.993
27,NCI-H1437,0.985

# Same assay, conditions: first compound 0.02 µM
row,Cell Line,relative viability
1,BEN,0.647
2,HARA,0.842
3,NCI-H322M,0.84
4,LCLC-97TM1,0.208
5,NCI-H2009,1.26
6,A-427,1.14
7,NCI-H441,0.435
8,NCI-H661,0.505
9,NCI-H1734,0.72
10,NCI-H460,0.434
11,NCI-H2347,0.893
12,SW 1573,0.525
13,NCI-H1395,0.998
14,201T,0.979
15,NCI-H1915,1.11
16,HCC-827,1.03
17,LXF-289,0.987
18,NCI-H23,0.368
19,NCI-H647,0.736
20,CAL-12T,0.753
21,NCI-H1651,0.714
22,EPLC-272H,0.969
23,NCI-H2228,0.436
24,NCI-H1792,0.382
25,NCI-H1355,0.733
26,NCI-H3122,0.989
27,NCI-H1437,0.981

# Same assay, conditions: first compound 0.06325 µM
row,Cell Line,relative viability
1,BEN,0.446
2,HARA,0.573
3,NCI-H322M,0.586
4,LCLC-97TM1,0.157
5,NCI-H2009,0.639
6,A-427,0.748
7,NCI-H441,0.343
8,NCI-H661,0.223
9,NCI-H1734,0.336
10,NCI-H460,0.0937
11,NCI-H2347,0.68
12,SW 1573,0.297
13,NCI-H1395,0.653
14,201T,0.862
15,NCI-H1915,0.901
16,HCC-827,0.911
17,LXF-289,0.757
18,NCI-H23,0.243
19,NCI-H647,0.192
20,CAL-12T,0.291
21,NCI-H1651,0.321
22,EPLC-272H,0.575
23,NCI-H2228,0.323
24,NCI-H1792,0.112
25,NCI-H1355,0.354
26,NCI-H3122,0.671
27,NCI-H1437,0.596

# Same assay, conditions: first compound 0.2 µM
row,Cell Line,relative viability
1,BEN,0.297
2,HARA,0.211
3,NCI-H322M,0.442
4,LCLC-97TM1,0.132
5,NCI-H2009,0.497
6,A-427,0.609
7,NCI-H441,0.286
8,NCI-H661,0.23
9,NCI-H1734,0.318
10,NCI-H460,0.0501
11,NCI-H2347,0.385
12,SW 1573,0.242
13,NCI-H1395,0.834
14,201T,0.73
15,NCI-H1915,0.631
16,HCC-827,0.699
17,LXF-289,0.658
18,NCI-H23,0.287
19,NCI-H647,0.146
20,CAL-12T,0.334
21,NCI-H1651,0.293
22,EPLC-272H,0.491
23,NCI-H2228,0.193
24,NCI-H1792,0.0865
25,NCI-H1355,0.257
26,NCI-H3122,0.53
27,NCI-H1437,0.315

# Compound: C1CCC(CC1)N(CCNCCC2=C3C(=C(C=C2)O)NC(=O)CO3)C(=O)CCNCCC4=CC(=C(C=C4)Cl)Cl [AZ505] + Cc1nc(NC(=O)N2CCC[C@H]2C(N)=O)sc1-c1ccnc(C(C)(C)C(F)(F)F)c1 [Alpelisib] (partner 2 µM)
# Assay: as above
# Conditions: first compound 0.08 µM
# Method in brief: as §1
row,Cell Line,relative viability
1,BEN,0.947
2,HARA,0.704
3,NCI-H322M,0.757
4,LCLC-97TM1,0.327
5,NCI-H2009,1.07
6,A-427,1.08
7,NCI-H441,0.721
8,NCI-H661,0.666
9,NCI-H1734,0.633
10,NCI-H460,0.458
11,NCI-H2347,0.558
12,SW 1573,0.658
13,NCI-H1395,1.1
14,201T,0.942
15,NCI-H1915,1.01
16,HCC-827,0.921
17,LXF-289,0.983
18,NCI-H23,0.617
19,NCI-H647,1.04
20,CAL-12T,1.05
21,NCI-H1651,0.94
22,EPLC-272H,0.76
23,NCI-H2228,0.627
24,NCI-H1792,0.719
25,NCI-H1355,0.775
26,NCI-H3122,0.79
27,NCI-H1437,0.852

# Same assay, conditions: first compound 0.253 µM
row,Cell Line,relative viability
1,BEN,1.01
2,HARA,0.641
3,NCI-H322M,0.774
4,LCLC-97TM1,0.333
5,NCI-H2009,1.11
6,A-427,1.11
7,NCI-H441,0.698
8,NCI-H661,0.493
9,NCI-H1734,0.626
10,NCI-H460,0.559
11,NCI-H2347,0.591
12,SW 1573,0.714
13,NCI-H1395,1.3
14,201T,1.01
15,NCI-H1915,1.1
16,HCC-827,0.997
17,NCI-H647,1.46
18,CAL-12T,1.23
19,NCI-H1651,1.03
20,EPLC-272H,0.719
21,NCI-H2228,0.554
22,NCI-H1792,0.769
23,NCI-H1355,0.769
24,NCI-H3122,0.677
25,NCI-H1437,0.93

# Same assay, conditions: first compound 0.8 µM
row,Cell Line,relative viability
1,BEN,0.959
2,HARA,0.582
3,NCI-H322M,0.688
4,LCLC-97TM1,0.26
5,NCI-H2009,1.12
6,A-427,1.04
7,NCI-H441,0.599
8,NCI-H661,0.738
9,NCI-H1734,0.631
10,NCI-H460,0.485
11,NCI-H2347,0.643
12,SW 1573,0.661
13,NCI-H1395,0.935
14,201T,0.973
15,NCI-H1915,0.977
16,HCC-827,0.87
17,LXF-289,1.02
18,NCI-H23,0.653
19,NCI-H647,1.05
20,CAL-12T,1.23
21,NCI-H1651,0.977
22,EPLC-272H,0.679
23,NCI-H2228,0.677
24,NCI-H1792,0.66
25,NCI-H1355,0.834
26,NCI-H3122,0.772
27,NCI-H1437,0.876

# Same assay, conditions: first compound 2.53 µM
row,Cell Line,relative viability
1,BEN,1.02
2,HARA,0.512
3,NCI-H322M,0.844
4,LCLC-97TM1,0.247
5,NCI-H2009,1.1
6,A-427,1.01
7,NCI-H441,0.671
8,NCI-H661,0.81
9,NCI-H1734,0.744
10,NCI-H460,0.507
11,NCI-H2347,0.522
12,SW 1573,0.82
13,NCI-H1395,1.11
14,201T,1.04
15,NCI-H1915,0.986
16,HCC-827,0.947
17,LXF-289,1.06
18,NCI-H23,0.644
19,NCI-H647,1.07
20,CAL-12T,1.24
21,NCI-H1651,0.89
22,EPLC-272H,0.789
23,NCI-H2228,0.69
24,NCI-H1792,0.701
25,NCI-H1355,0.65
26,NCI-H3122,0.721
27,NCI-H1437,0.932

# Same assay, conditions: first compound 8 µM
row,Cell Line,relative viability
1,BEN,1.2
2,HARA,0.494
3,NCI-H322M,0.79
4,LCLC-97TM1,0.363
5,NCI-H2009,1.13
6,A-427,1.08
7,NCI-H441,0.761
8,NCI-H661,0.907
9,NCI-H1734,0.683
10,NCI-H460,0.469
11,NCI-H2347,0.714
12,SW 1573,0.858
13,NCI-H1395,1.16
14,201T,1.05
15,NCI-H1915,1.08
16,HCC-827,1.06
17,LXF-289,1.01
18,NCI-H23,0.845
19,NCI-H647,1.08
20,CAL-12T,1.33
21,NCI-H1651,0.939
22,EPLC-272H,0.958
23,NCI-H2228,0.748
24,NCI-H1792,0.642
25,NCI-H1355,0.902
26,NCI-H3122,0.836
27,NCI-H1437,1

# Compound: Cn1c(=O)n(-c2ccc(C(C)(C)C#N)cc2)c2c3cc(-c4cnc5ccccc5c4)ccc3ncc21 [Dactolisib] + CCNC(=O)c1noc(-c2cc(C(C)C)c(O)cc2O)c1-c1ccc(CN2CCOCC2)cc1 [Luminespib] (partner 0.01 µM)
# Assay: as above
# Conditions: first compound 0.002 µM
# Method in brief: as §1
row,Cell Line,relative viability
1,BEN,0.382
